Assay results: ChEMBL document CHEMBL1129200, “Synthesis and cytotoxic activity of phenyl-hexahydropyrrolo[3,4-c]carbazoles” (Bioorg Med Chem Lett, 1996)

How the values were obtained:
P388 = assay: Cytotoxic activity against P-388 cell lines.; type: functional, cell-based; conditions: Mus musculus
HT-29 = assay: Cytotoxic activity against HT-29 cell lines.; type: functional, cell-based; conditions: Homo sapiens
A549 = assay: Cytotoxic activity against A-549 cell lines.; type: functional, cell-based; conditions: Homo sapiens
SK-MEL-28 = assay: Cytotoxic activity against MEL-28 cell lines.; type: functional, cell-based; conditions: Homo sapiens
HOP-62 = assay: Cytotoxic activity against HOP-62 non small cell lung cancer cell lines.; type: functional; conditions: Homo sapiens
K562 = assay: Cytotoxic activity against K-562 leukemia cell lines.; type: functional; conditions: Homo sapiens
SNB-75 = assay: Cytotoxic activity against SNB-75 CNS tumor cell line cell lines.; type: functional; conditions: Homo sapiens
HOP-92 = assay: Cytotoxic activity against HOP-92 non small cell lung cancer cell lines.; type: functional; conditions: Homo sapiens
MDA-N = assay: Cytotoxic activity against MDA-N breast cancer cell lines.; type: functional; conditions: Homo sapiens
OVCAR-4 = assay: Cytotoxic activity against OVCAR-4 ovarian cancer cell lines.; type: functional; conditions: Homo sapiens
SK-MEL-2 = assay: Cytotoxic activity against SK-MEL-2 melanoma cell lines.; type: functional; conditions: Homo sapiens
T47D = assay: Cytotoxic activity against T-47D breast cancer cell lines.; type: functional; conditions: Homo sapiens
BT-549 = assay: Cytotoxic activity against […] breast cancer cell lines.; type: functional; conditions: Homo sapiens
UACC-62 = assay: Cytotoxic activity against UACC-62 melanoma cell lines.; type: functional; conditions: Homo sapiens
SNB-19 = assay: Cytotoxic activity against SNB-19 CNS tumor cell lines.; type: functional; conditions: Homo sapiens
MDA-MB-435 = assay: Cytotoxic activity against MDA-MB-435 breast cancer cell lines.; type: functional; conditions: Homo sapiens
HL-60 = assay: Cytotoxic activity against HL-60(TB) leukemia cell lines.; type: functional; conditions: Homo sapiens
A498 = assay: Cytotoxic activity against A 498 renal cancer cell lines.; type: functional; conditions: Homo sapiens
U-251 = assay: Cytotoxic activity against U251 CNS tumor cell line cell lines.; type: functional; conditions: Homo sapiens
RXF 393 = assay: Cytotoxic activity against […] renal cancer cell lines.; type: functional; conditions: Homo sapiens

Question: With COc1cc([C@@H]2Cc3[nH]c4ccc(C)cc4c3[C@@H]3C(=O)N(c4ccccc4)C(=O)[C@H]23)cc(OC)c1OC as the compound, how does the IC50 (P388) read?
Answer: Its IC50 is 20.1 µM.

Question: What about the IC50 (HT-29) of the same compound?
Answer: The IC50 was 20.1 µM.

Question: What about the IC50 (A549) of the same compound?
Answer: Its IC50 is 20.1 µM.

Question: And the IC50 (SK-MEL-28)?
Answer: Its IC50 is 20.1 µM.

Question: How did the IC50 (P388) turn out when COc1cc([C@@H]2Cc3[nH]c4ccc(Br)cc4c3[C@@H]3C(=O)N(c4ccccc4)C(=O)[C@H]23)cc(OC)c1OC was run?
Answer: Its IC50 is greater than 17.8 µM.

Question: What about the IC50 (HT-29) of the same compound?
Answer: Its IC50 is greater than 17.8 µM.

Question: And the IC50 (A549)?
Answer: The IC50 was greater than 17.8 µM.

Question: And the IC50 (SK-MEL-28)?
Answer: The IC50 was greater than 17.8 µM.

Question: For COc1cc([C@@H]2Cc3[nH]c4ccccc4c3[C@@H]3C(=O)N(c4ccccc4)C(=O)[C@H]23)cc(OC)c1OC, which IC50 (P388) is on record?
Answer: Its IC50 is 0.5 µM.

Question: And the GI50 (HOP-62)?
Answer: Its GI50 is 16.2 µM.

Question: What about the GI50 (K562) of the same compound?
Answer: Its GI50 is 31.6 µM.

Question: What about the GI50 (SNB-75) of the same compound?
Answer: The GI50 was 26.9 µM.

Question: And the GI50 (HOP-92)?
Answer: The GI50 was 13.2 µM.

Question: And the IC50 (HT-29)?
Answer: The IC50 was 2.1 µM.

Question: And the IC50 (A549)?
Answer: The IC50 was 2.1 µM.

Question: What about the GI50 (MDA-N) of the same compound?
Answer: Its GI50 is 30.2 µM.

Question: And the GI50 (OVCAR-4)?
Answer: The GI50 was 26.9 µM.

Question: And the GI50 (SK-MEL-2)?
Answer: The GI50 was 27.5 µM.

Question: And the GI50 (T47D)?
Answer: The GI50 was 25.1 µM.

Question: What about the GI50 (BT-549) of the same compound?
Answer: Its GI50 is 25.1 µM.

Question: What about the IC50 (SK-MEL-28) of the same compound?
Answer: The IC50 was 2.1 µM.

Question: And the GI50 (UACC-62)?
Answer: The GI50 was 24 µM.

Question: And the GI50 (SNB-19)?
Answer: Its GI50 is 25.7 µM.

Question: What about the GI50 (MDA-MB-435) of the same compound?
Answer: The GI50 was 21.9 µM.

Question: What about the GI50 (HL-60) of the same compound?
Answer: Its GI50 is 31.6 µM.

Question: What about the GI50 (A498) of the same compound?
Answer: The GI50 was 33.1 µM.

Question: And the GI50 (U-251)?
Answer: The GI50 was 34.7 µM.

Question: What about the GI50 (RXF 393) of the same compound?
Answer: The GI50 was 20.4 µM.
